The subject of the test is L1210 leukemia ip in BDF1 mice, survival T/C. In words: NCI In Vivo Anticancer Drug Screen. Data for tumor model L1210 Leukemia (intraperitoneal) in B6D2F1 (BDF1) mice. The note with it: endpoint: mean survival time, higher = longer survival. Summed up:
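Mice bearing the transplanted tumor received compound or vehicle. Survival of the treated group was divided by that of the vehicle-treated control group to give the ratio.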

Molecules are shown by their SMILES. Where “and” joins values, the source holds several entries; their conditions need not be identical. Identical values can stand only once. Inconclusive results and toxic doses are left out.

As for `O=C(Nc1nccs1)NC1CCCCC1`, the T/C is, setting by setting: (dose: 100.0 mg/kg/injection, schedule: Q01DX009 (ip), vehicle: other) 100 % of control; (dose: 200.0 mg/kg/injection, schedule: Q01DX009 (ip), vehicle: other) 96 % of control; (dose: 400.0 mg/kg/injection, schedule: Q01DX009 (ip), vehicle: other) 93 % of control.

Consider `C=C(Br)CSC#N`, for which the T/C (dose: 12.5 mg/kg/injection, schedule: Q01DX009 (ip), vehicle: saline with Tween-80) is 93 % of control; the T/C (dose: 25.0 mg/kg/injection, schedule: Q01DX009 (ip), vehicle: saline with Tween-80) was 102 % of control; the T/C (dose: 50.0 mg/kg/injection, schedule: Q01DX009 (ip), vehicle: saline with Tween-80) is 89 % of control.

As to `C(CC1CO1)C1CO1` (stereo not given), the T/C was 197 % of control (dose: 7.0 mg/kg/injection, schedule: Q01DX009 (ip), vehicle: acetone); 118 % of control (dose: 9.0 mg/kg/injection, schedule: Q01DX Z (ip), vehicle: methylcellulose (MC)); 102 % of control and 115 % of control (dose: 9.2 mg/kg/injection, schedule: Q01DX009 (ip), vehicle: saline); 102 % of control (dose: 10.6 mg/kg/injection, schedule: Q01DX001 (ip), vehicle: acetone); 115 % of control (dose: 10.6 mg/kg/injection, schedule: Q01DX009 (ip), vehicle: acetone); 112 % of control (dose: 10.6 mg/kg/injection, schedule: Q04DX003 (ip), vehicle: acetone). Further, the T/C is 102 % of control (dose: 10.6 mg/kg/injection, schedule: Q08DX002 (ip), vehicle: acetone); 152 % of control (dose: 14.0 mg/kg/injection, schedule: Q01DX009 (ip), vehicle: acetone); 102 % of control and 105 % of control (dose: 14.0 mg/kg/injection, schedule: Q01DX009 (ip), vehicle: saline); 115 % of control (dose: 16.0 mg/kg/injection, schedule: Q01DX009 (ip), vehicle: acetone); 115 % of control (dose: 16.0 mg/kg/injection, schedule: Q04DX003 (ip), vehicle: acetone); 112 % of control (dose: 16.0 mg/kg/injection, schedule: Q08DX002 (ip), vehicle: acetone). Besides, the T/C (dose: 18.0 mg/kg/injection, schedule: Q01DX Z (ip), vehicle: methylcellulose (MC)) is 122 % of control and 124 % of control; the T/C (dose: 18.8 mg/kg/injection, schedule: Q01DX009 (ip), vehicle: saline) was 107 % of control; the T/C (dose: 21.0 mg/kg/injection, schedule: Q01DX009 (ip), vehicle: saline) is 109 % of control and 116 % of control; the T/C (dose: 22.0 mg/kg/injection, schedule: Q01DX001 (ip), vehicle: saline) was 109 % of control; the T/C (dose: 24.0 mg/kg/injection, schedule: Q01DX001 (ip), vehicle: acetone) is 103 % of control; the T/C (dose: 24.0 mg/kg/injection, schedule: Q04DX003 (ip), vehicle: acetone) was 124 % of control. In addition, the T/C (dose: 24.0 mg/kg/injection, schedule: Q08DX002 (ip), vehicle: acetone) is 105 % of control; the T/C (dose: 27.0 mg/kg/injection, schedule: Q01DX Z (ip), vehicle: methylcellulose (MC)) is 110 % of control and 116 % of control; the T/C (dose: 33.0 mg/kg/injection, schedule: Q01DX001 (ip), vehicle: saline) was 107 % of control; the T/C (dose: 36.0 mg/kg/injection, schedule: Q01DX001 (ip), vehicle: acetone) is 110 % of control; the T/C (dose: 36.0 mg/kg/injection, schedule: Q04DX003 (ip), vehicle: acetone) was 124 % of control; the T/C (dose: 36.0 mg/kg/injection, schedule: Q08DX002 (ip), vehicle: acetone) is 117 % of control. The T/C (dose: 37.5 mg/kg/injection, schedule: Q01DX009 (ip), vehicle: saline) was 150 % of control; the T/C (dose: 37.5 mg/kg/injection, schedule: Q04DX003 (ip), vehicle: saline sonified) was 113 % of control; the T/C (dose: 40.0 mg/kg/injection, schedule: Q01DX Z (ip), vehicle: methylcellulose (MC)) was 108 % of control and 116 % of control; the T/C (dose: 50.0 mg/kg/injection, schedule: Q01DX001 (ip), vehicle: saline) was 117 % of control; the T/C (dose: 54.0 mg/kg/injection, schedule: Q01DX001 (ip), vehicle: acetone) is 121 % of control; the T/C (dose: 54.0 mg/kg/injection, schedule: Q08DX002 (ip), vehicle: acetone) is 113 % of control. The T/C by setting is: (dose: 60.0 mg/kg/injection, schedule: Q01DX Z (ip), vehicle: methylcellulose (MC)) 86 % of control; (dose: 66.0 mg/kg/injection, schedule: Q01DX009 (ip), vehicle: acetone) 168 % of control; (dose: 66.0 mg/kg/injection, schedule: Q04DX003 (ip), vehicle: saline) 117 % of control; (dose: 75.0 mg/kg/injection, schedule: Q01DX009 (ip), vehicle: saline) 175 % of control; (dose: 75.0 mg/kg/injection, schedule: Q04DX003 (ip), vehicle: saline sonified) 119 % of control; (dose: 81.0 mg/kg/injection, schedule: Q01DX001 (ip), vehicle: acetone) 118 % of control. The T/C is 154 % of control (dose: 81.0 mg/kg/injection, schedule: Q04DX003 (ip), vehicle: acetone); 123 % of control (dose: 81.0 mg/kg/injection, schedule: Q08DX002 (ip), vehicle: acetone); 118 % of control (dose: 100.0 mg/kg/injection, schedule: Q01DX001 (ip), vehicle: saline); 224 % of control (dose: 100.0 mg/kg/injection, schedule: Q01DX009 (ip), vehicle: acetone); 161 % of control (dose: 100.0 mg/kg/injection, schedule: Q04DX003 (ip), vehicle: acetone); 101 % of control (dose: 150.0 mg/kg/injection, schedule: Q04DX003 (ip), vehicle: saline). For the same compound, the T/C (dose: 200.0 mg/kg/injection, schedule: Q01DX001 (ip), vehicle: saline) was 121 % of control.

On to `Cc1ccc(NC(=O)Nc2cc(C)on2)c([N+](=O)[O-])c1`, for which the T/C runs as follows: (dose: 25.0 mg/kg/injection, schedule: Q04DX003 (ip), vehicle: Klucel (hydroxypropylcellulose) (HPC)) 96 % of control; (dose: 50.0 mg/kg/injection, schedule: Q04DX003 (ip), vehicle: Klucel (hydroxypropylcellulose) (HPC)) 96 % of control; (dose: 100.0 mg/kg/injection, schedule: Q04DX003 (ip), vehicle: Klucel (hydroxypropylcellulose) (HPC)) 100 % of control and 91 % of control.

With `Cc1ccc2c(ccc3c[n+]4ccccc4c(C)c32)c1`, the T/C runs as follows: (dose: 12.5 mg/kg/injection, schedule: Q01DX001 (ip), vehicle: carboxymethylcellulose (CMC)) 107 % of control; (dose: 25.0 mg/kg/injection, schedule: Q01DX001 (ip), vehicle: carboxymethylcellulose (CMC)) 96 % of control.

With `OC(c1cc(-c2cccc(Cl)c2)nc2ccccc12)C1CCCCN1` (stereo not given), the T/C is, setting by setting: (dose: 50.0 mg/kg/injection, schedule: Q01DX001 (ip), vehicle: carboxymethylcellulose (CMC)) 92 % of control; (dose: 100.0 mg/kg/injection, schedule: Q01DX001 (ip), vehicle: carboxymethylcellulose (CMC)) 90 % of control; (dose: 200.0 mg/kg/injection, schedule: Q01DX001 (ip), vehicle: carboxymethylcellulose (CMC)) 95 % of control.

As for `Cc1ccc2c(c1)[n+]([O-])c1nc(N)nc(N)c1[n+]2[O-]`, the T/C runs as follows: (dose: 50.0 mg/kg/injection, schedule: Q04DX002 (ip), vehicle: Klucel (hydroxypropylcellulose) (HPC)) 93 % of control; (dose: 53.0 mg/kg/injection, schedule: Q01DX001 (ip), vehicle: Klucel (hydroxypropylcellulose) (HPC)) 97 % of control; (dose: 88.0 mg/kg/injection, schedule: Q01DX001 (ip), vehicle: Klucel (hydroxypropylcellulose) (HPC)) 96 % of control; (dose: 100.0 mg/kg/injection, schedule: Q04DX002 (ip), vehicle: Klucel (hydroxypropylcellulose) (HPC)) 102 % of control and 104 % of control; (dose: 133.0 mg/kg/injection, schedule: Q01DX001 (ip), vehicle: Klucel (hydroxypropylcellulose) (HPC)) 91 % of control; (dose: 200.0 mg/kg/injection, schedule: Q01DX001 (ip), vehicle: Klucel (hydroxypropylcellulose) (HPC)) 97 % of control. In addition, the T/C by setting is: (dose: 300.0 mg/kg/injection, schedule: Q01DX001 (ip), vehicle: Klucel (hydroxypropylcellulose) (HPC)) 104 % of control; (dose: 400.0 mg/kg/injection, schedule: Q04DX002 (ip), vehicle: Klucel (hydroxypropylcellulose) (HPC)) 98 % of control and 119 % of control.

With `CCCCCCCCCCCCCCOC(=O)Cl`, the T/C (dose: 100.0 mg/kg/injection, schedule: Q01DX009 (ip), vehicle: Klucel (hydroxypropylcellulose) (HPC)) is 101 % of control; the T/C (dose: 200.0 mg/kg/injection, schedule: Q01DX009 (ip), vehicle: Klucel (hydroxypropylcellulose) (HPC)) is 97 % of control; the T/C (dose: 400.0 mg/kg/injection, schedule: Q01DX009 (ip), vehicle: Klucel (hydroxypropylcellulose) (HPC)) was 86 % of control.

With `C/C(=C\Cl)COC(C)(C)C`, the T/C was 94 % of control (dose: 100.0 mg/kg/injection, schedule: Q01DX001 (ip), vehicle: saline with Tween-80) and 94 % of control (dose: 200.0 mg/kg/injection, schedule: Q01DX001 (ip), vehicle: saline with Tween-80).

For the origin of these results see PubChem BioAssay AID248 (DTP/NCI, 2004).
